# “And” between values parts separate entries of the source, which are not always exact repeats. Equal entries are not always repeated. Where two headings read alike, the source gives them in different places.
# Tested on: MA15-CoV
# Set-up: species or system mice
# Conditions: mouse, in vivo; for decline in day 4 lung viral titers: sc
structure (smiles),measurement,setting,value
"COc1cccc2[nH]c(C(=O)N[C@@H](CC(C)C)C(=O)N[C@@H](C[C@@H]3CCNC3=O)C(=O)CO)cc12 [parent compound, N-((1S)-1-{[((1S)-3-hydroxy-2-oxo-1-{[(3S)-2-oxopyrrolidin-3-yl]methyl}propyl)amino]carbonyl}-3-methylbutyl)-4-methoxy-1H-indole-2-carboxamide]",reduction of lung viral titers on day 4 post-infection,,≈ 2.0 log 10 and ≈ 1.5 log 10 and ~1.0 log 10
same,weight loss and histopathologic signs of disease,,decreased
same,weight loss caused by the virus,,reduced
same,decline in day 4 lung viral titers,30 mg/kg,≈ 1.5 log 10
same,decline in day 4 lung viral titers,100 mg/kg,≈ 3 log 10
same,decline in day 4 lung viral titers,300 mg/kg,≥ 3.5 log 10
